The NIST ThermoML archive (doi:10.1016/j.jct.2017.10.014)
Numbers after ± are expanded uncertainties.

Conditions: Liquid; for mass density: 100 kPa, Vibrating tube method; for viscosity: 101.33 kPa, Concentric cylinders viscometry

CC(C)(CO)[C@@H](O)C(=O)NCCCO [d-Panthenol]
Conditions | mass density [kg/m3] | viscosity [mPa·s]
293.15 K | 1165.18 ± 1.9 | 527287 ± 66000
298.15 K | 1161.68 ± 1.9 | 261544 ± 30000
303.15 K | 1158.27 ± 1.9 | 125673 ± 13000
308.15 K | 1154.96 ± 1.9 | 68487 ± 6700
313.15 K | 1151.46 ± 1.9 | 37252 ± 3300
